Source: PMC11211886 (Frontiers in Pharmacology, 2024)
“And” between values parts separate entries of the source, which are not always exact repeats. Identical values can stand only once. One block for each molecule: values may come before it.

Key:
MATE1 = molecular target: T1, MATE1 (Homo sapiens, UniProt Q96FL8); test: MATE1 inhibition, tetraethylammonium uptake in transfected HEK293 cells
T1 sequence (Q96FL8 1-570): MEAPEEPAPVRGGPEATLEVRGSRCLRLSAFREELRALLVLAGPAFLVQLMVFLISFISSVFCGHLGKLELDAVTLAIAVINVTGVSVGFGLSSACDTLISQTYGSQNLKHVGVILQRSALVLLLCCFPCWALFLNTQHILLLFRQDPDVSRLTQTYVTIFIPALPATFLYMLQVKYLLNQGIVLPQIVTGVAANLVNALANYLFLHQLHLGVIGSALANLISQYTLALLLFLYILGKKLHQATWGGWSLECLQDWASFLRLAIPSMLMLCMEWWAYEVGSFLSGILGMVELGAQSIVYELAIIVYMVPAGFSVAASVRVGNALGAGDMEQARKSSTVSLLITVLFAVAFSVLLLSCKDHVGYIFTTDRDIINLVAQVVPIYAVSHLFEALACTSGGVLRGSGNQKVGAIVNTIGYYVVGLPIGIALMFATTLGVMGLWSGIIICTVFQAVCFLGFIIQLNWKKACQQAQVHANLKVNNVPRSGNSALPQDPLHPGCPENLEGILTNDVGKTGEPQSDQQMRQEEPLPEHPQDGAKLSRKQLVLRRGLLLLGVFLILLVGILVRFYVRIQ
Procedure: (§1) The pre-incubation solutions were removed, and incubation solutions containing the inhibitors and probe substrates (or transport buffer containing an equal volume of vehicle control and probe substrates) were added and incubated at 37°C for 2 min (5 min for OATP1B3). The probe substrate for OAT1 was 4-aminohippuric acid (10 μM), for OAT3 was estrone 3-sulfate (10 μM), for OCT2 was metformin (100 μM), for OATP1B1 was β-estradiol 17-(β-D-glucuronide) (5 μM), for OATP1B3 was β-estradiol 17-(β-D-glucuronide) (10 μM), and for MATE1 and MATE2-K was tetraethylammonium (10 μM). After incubation, cells were washed three times with ice-cold transport buffer (25 mM HEPES, pH 7.4, pH 8.0 for overexpressing MATE1 and MATE2-K HEK293 cells) and lysed in distilled water. The concentrations of probe substrates were determined by LC-MS/MS, and a BCA Kit (Solarbio ®Life Sciences, Beijing, China) was used to determine the protein content in the cell lysate.
(§2) where C is the concentration of the drug in the cell lysate (nM), P is the protein concentration of the cell lysate (mg/mL), and T is the incubation time (minute). Uptake ratetest compound is the uptake rate of the substrate in the presence of the test compound. Uptake ratevehicle control is the uptake rate of the substrate in the presence of the vehicle control. Uptake ratepassive is the uptake rate of the substrate in the presence of the positive inhibitor at the top test concentration.

MATE2-K = MATE2-K (Homo sapiens, UniProt Q86VL8); test: MATE2-K inhibition, tetraethylammonium uptake in transfected HEK293 cells
Sequence of MATE2-K (Q86VL8 1-566 isoform Q86VL8-3): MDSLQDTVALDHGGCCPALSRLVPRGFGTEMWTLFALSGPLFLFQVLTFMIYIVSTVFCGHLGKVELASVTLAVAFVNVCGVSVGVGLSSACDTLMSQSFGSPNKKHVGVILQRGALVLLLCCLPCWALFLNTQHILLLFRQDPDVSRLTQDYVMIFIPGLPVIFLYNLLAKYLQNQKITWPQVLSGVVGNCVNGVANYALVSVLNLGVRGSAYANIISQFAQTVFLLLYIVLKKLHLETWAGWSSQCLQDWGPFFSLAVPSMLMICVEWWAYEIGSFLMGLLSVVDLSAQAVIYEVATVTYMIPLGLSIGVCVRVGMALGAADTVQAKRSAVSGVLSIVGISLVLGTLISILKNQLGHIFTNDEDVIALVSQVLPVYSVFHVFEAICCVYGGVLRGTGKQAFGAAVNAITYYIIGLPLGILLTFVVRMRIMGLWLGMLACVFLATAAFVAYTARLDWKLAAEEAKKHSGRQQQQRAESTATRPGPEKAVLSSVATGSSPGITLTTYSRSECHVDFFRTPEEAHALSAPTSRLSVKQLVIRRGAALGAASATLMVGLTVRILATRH
Procedure: as §1, §2

[1] = Excretion/mass balance of [14C] amdizalisib in BDI and BDC rats; assay type: in vivo, SD rat; details: for Cumulative recovery of radioactivity, Bile / Cumulative recovery of radioactivity, Cage washing / Cumulative recovery of radioactivity, Feces / Cumulative recovery of radioactivity, Total recovery / Cumulative recovery of radioactivity, Urine: PO 5 mg/100 μCi/kg; for unchanged drug recovered in bile / unchanged drug recovered in feces / unchanged drug recovered in urine: % of administered dose
Procedure: Rats were divided into seven groups according to the sampling time points, with six rats (male: female = 1: 1) in each group, except that Group 1 h used three male rats and Group 2 h and Group 72 h used three female rats, respectively. […] Plasma and tissue samples were collected at 0.5, 1, 6, 24, and 48 h after dosing for male rats and at 0.5, 2, 6, 24, 48, and 72 h after dosing for female rats. […] After blood collection, the rats were sacrificed, and 18 tissues, namely, brain, breast, skin, fat, testis, ovary, bladder, pancreas, skeletal muscle, heart, lung, kidney, liver, stomach, small intestine, colon, spleen, and spinal cord, were removed from the rats at designated time points. These tissues were washed with saline and dried with filter paper. Aliquots of tissues were accurately weighed and then homogenized in 50% (v/v) methanol/water (10 mL/1 g tissue). […] Twelve rats (207–277 g) were divided into the bile-duct cannulation (BDC) group and the bile-duct intact (BDI) group, with six rats (male: female = 1:1) in each group. […] Urine and feces were collected at pre-dose (0) and 24 h through 168 h post-dose (the first 24 h interval split into 0–8 and 8–24 h for urine) for BDI rats. For BDC rats, urine and feces were collected at pre-dose (0) and 72 h post-dose (the first 24 h interval split into 0–8 and 8–24 h for urine), and bile was collected at pre-dose (0), 0–4, 4–8, 8–24, 24–48, and 48–72 h post-dose. Cage-washing fluids were collected at 24 h intervals until the last sampling time point for both groups. Another BDI rat was orally administered a blank vehicle (0.5% CMC-Na, 0.5 g/100 mL), and urine and feces were collected 24 h post-dose. The weight of the collected samples was recorded. Samples were stored in a −20°C freezer until analysis.
For the determination of drug-derived radioactivity in the excretion study in SD rats, urine (0.1 g), bile (0.025 g), and cage wash samples (1 g) were mixed well with scintillation solution (5 mL for urine and cage wash samples; 10 mL for bile samples) and directly analyzed by a liquid scintillation counter (LSC, Perkin Elmer, Waltham, MA, United States). An appropriate amount of isopropanol: water (1:1, v/v) was added to the feces samples and thoroughly homogenized. Pooled fecal homogenate (0.3 g) was combusted in a Sample Oxidizer 501 (RJ Harvey Instrument, Tappan, NY, USA), and the generated ^14CO2 was trapped in a 15 mL scintillation solution and further analyzed for radioactivity by LSC using a Tri-Carb 3110 TR counter (Perkin Elmer, Waltham, MA, United States). The radioactive concentrations of urine, bile, feces, and cage washings were calculated with the counted disintegration per minute (DPM). The percentage of administered dose recovered (% dose recovered) was calculated using the following equation: % dose recovered=Total radioactivity DPM in sample/ radioactivity DPM in dosing formulation×100.

OAT3 = molecular target: T2, OAT3 (Homo sapiens, UniProt Q8TCC7); test: OAT3 inhibition, estrone 3-sulfate uptake in transfected HEK293 cells
T2 sequence (Q8TCC7 1-542): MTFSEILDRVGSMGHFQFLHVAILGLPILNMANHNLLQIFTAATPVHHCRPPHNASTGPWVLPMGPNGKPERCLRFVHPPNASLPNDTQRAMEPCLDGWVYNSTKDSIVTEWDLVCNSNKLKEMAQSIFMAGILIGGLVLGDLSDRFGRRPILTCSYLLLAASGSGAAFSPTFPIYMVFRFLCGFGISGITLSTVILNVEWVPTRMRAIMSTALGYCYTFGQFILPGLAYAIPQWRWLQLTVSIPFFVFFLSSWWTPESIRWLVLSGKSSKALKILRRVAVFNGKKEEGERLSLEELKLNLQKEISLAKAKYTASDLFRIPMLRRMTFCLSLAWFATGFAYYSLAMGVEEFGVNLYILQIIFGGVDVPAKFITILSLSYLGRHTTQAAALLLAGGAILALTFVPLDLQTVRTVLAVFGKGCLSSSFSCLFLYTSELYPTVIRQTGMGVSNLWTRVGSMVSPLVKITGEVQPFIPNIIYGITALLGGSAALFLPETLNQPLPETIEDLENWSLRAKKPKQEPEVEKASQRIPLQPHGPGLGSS
Procedure: as §1, §2

[2] = BDC rat, 0–72 h, female (n = 3)
[3] = BDC rat, 0–72 h, male and female (n = 6)
[4] = BDI rat, 0–168 h, female (n = 3)
[5] = BDI rat, 0–168 h, male and female (n = 6)

IC50 (MATE1): 12.5 nM
Percentage transported (MATE1; MATE1, compound 1 μM): 0.00%
Uptake rate (MATE1; MATE1, compound 1 μM): 12.5±2.43 pmol/mg protein/min
inhibition at 2 min, 1 µM (MATE1; human, pH 8): 100%
IC50 (MATE2-K): 13.6 nM
Percentage transported (MATE2-K; MATE2-K, compound 1 μM): 0.00%
Uptake rate (MATE2-K; MATE2-K, compound 1 μM): 7.55±1.58 pmol/mg protein/min
inhibition at 2 min, 1 µM (MATE2-K; human, pH 8): 100%
Molecule: CCc1nc(N)nc(N)c1-c1ccc(Cl)cc1 [Pyrimethamine, reference compound]

Cumulative recovery of radioactivity, Bile [1, 2]: 49.81 ± 2.07%
Cumulative recovery of radioactivity, Cage washing [1, 2]: 2.24 ± 1.90%
Cumulative recovery of radioactivity, Feces [1, 2]: 19.81 ± 4.98%
Cumulative recovery of radioactivity, Total recovery [1, 2]: 90.31 ± 0.91%
Cumulative recovery of radioactivity, Urine [1, 2]: 18.45 ± 4.01%
Cumulative recovery of radioactivity, Bile ([1]; BDC rat, 0–72 h, male (n = 3)): 58.17 ± 4.68%
Cumulative recovery of radioactivity, Cage washing ([1]; BDC rat, 0–72 h, male (n = 3)): 0.89 ± 0.37%
Cumulative recovery of radioactivity, Feces ([1]; BDC rat, 0–72 h, male (n = 3)): 8.98 ± 2.64%
Cumulative recovery of radioactivity, Total recovery ([1]; BDC rat, 0–72 h, male (n = 3)): 91.99 ± 1.88%
Cumulative recovery of radioactivity, Urine ([1]; BDC rat, 0–72 h, male (n = 3)): 23.96 ± 8.70%
Cumulative recovery of radioactivity, Bile [1, 3]: 53.99 ± 5.61%
Cumulative recovery of radioactivity, Cage washing [1, 3]: 1.57 ± 1.43%
Cumulative recovery of radioactivity, Feces [1, 3]: 14.40 ± 6.92%
Cumulative recovery of radioactivity, Total recovery [1, 3]: 91.15% and 91.15 ± 1.61%
Cumulative recovery of radioactivity, Urine [1, 3]: 21.20 ± 6.77%
fraction of the oral dose absorbed (bile + urine radioactivity) ([1]; BDC rats, 0–72 h, PO 5 mg/kg): at least 75.19%
Cumulative recovery of radioactivity, Cage washing [1, 4]: 4.72 ± 2.41%
Cumulative recovery of radioactivity, Feces [1, 4]: 71.15 ± 0.22%
Cumulative recovery of radioactivity, Total recovery [1, 4]: 91.59 ± 0.97%
Cumulative recovery of radioactivity, Urine [1, 4]: 15.72 ± 2.62%
Cumulative recovery of radioactivity, Cage washing ([1]; BDI rat, 0–168 h, male (n = 3)): 2.84 ± 0.17%
Cumulative recovery of radioactivity, Feces ([1]; BDI rat, 0–168 h, male (n = 3)): 63.14 ± 3.98%
Cumulative recovery of radioactivity, Total recovery ([1]; BDI rat, 0–168 h, male (n = 3)): 90.69 ± 1.16%
Cumulative recovery of radioactivity, Urine ([1]; BDI rat, 0–168 h, male (n = 3)): 24.71 ± 4.46%
Cumulative recovery of radioactivity, Cage washing [1, 5]: 3.78 ± 1.84%
Cumulative recovery of radioactivity, Feces [1, 5]: 67.15 ± 5.06%
Cumulative recovery of radioactivity, Total recovery [1, 5]: 91.14% and 91.14 ± 1.07%
Cumulative recovery of radioactivity, Urine [1, 5]: 20.21 ± 5.91%
total radioactivity recovered ([1]; BDI rats, within 48 h post-dose): over 80%
unchanged drug recovered in bile ([1]; female rats): 4.70%
unchanged drug recovered in feces ([1]; female rats): 29.80%
unchanged drug recovered in urine ([1]; female rats): 0.03%
unchanged drug recovered in bile ([1]; male rats): 2.69%
unchanged drug recovered in feces ([1]; male rats): 23.20%
unchanged drug recovered in urine ([1]; male rats): < 0.01%
Molecule: [^14C] amdizalisib

Percentage transported (OAT3; OAT3, compound 100 μM): 0.00%
Uptake rate (OAT3; OAT3, compound 100 μM): 19.5±2.26 pmol/mg protein/min
inhibition at 2 min, 100 µM (OAT3; human, pH 7.4): 100%
Molecule: CCCN(CCC)S(=O)(=O)c1ccc(C(=O)O)cc1 [Probenecid, reference compound]
